Series [1] concerns subjects with Anxiety disorder. The experiment in a line: 48-day daily oral treatment, subjects diagnosed with anxiety disorder. It counts as in vivo. Conditions: 4 subjects with anxiety disorder; 48-day treatment, daily oral dose 30 mg; increase. As to the method: (§1) In a 48-day treatment, 50 subjects suffering from diverse medical conditions receive a daily oral dose with either • pure psilocybin (30 mg); • pure cannabidiol (30 mg); or • combined treatment of pure psilocybin (30 mg)+pure cannabidiol (30 mg).

Series [2] relates to subjects with Dementia. The experiment in a line: 48-day daily oral treatment, subjects diagnosed with dementia. Conditions: 10 subjects with dementia, 48-day treatment, 30 mg of each active. The format is in vivo. As to the method:
as §1

Series [3] deals with subjects with Panic disorder. The experiment in a line: 48-day daily oral treatment, subjects diagnosed with panic disorder. The format is in vivo. As to conditions: 2 subjects with panic disorder; 48-day treatment, daily oral dose 30 mg; increase. The procedure:
as §1

Series [4] has as its system subjects with Schizophrenia. Put plainly: 48-day daily oral treatment, subjects diagnosed with schizophrenia. The format is in vivo. As to conditions: 2 subjects with schizophrenia, 48-day treatment, 30 mg of each active, decrease. The procedure: as §1
The test system of series [5] is subjects with Depression. The experiment in a line: 48-day daily oral treatment, subjects diagnosed with depression. It counts as in vivo. As to conditions: 14 subjects with depression, 48-day treatment, 30 mg of each active. As to the method:
as §1

The test system of series [6] is subjects with Huntington's disease. Put plainly: 48-day daily oral treatment, subject diagnosed with Huntington's disease. The format is in vivo. As to conditions: 1 subject with Huntington's disease, 48-day treatment, 30 mg of each active. As to the method:
as §1

Series [7] deals with subjects with Alzheimer's disease. The experiment in a line: 48-day daily oral treatment, subjects diagnosed with Alzheimer's disease. As to conditions: 10 subjects with Alzheimer's disease, 48-day treatment, 30 mg of each active. The format is in vivo. As to the method:
as §1

Series [8] has as its system subjects with Parkinson's disease. The experiment in a line: 48-day daily oral treatment, subjects diagnosed with Parkinson's disease. It counts as in vivo. Conditions: 4 subjects with Parkinson's disease, 48-day treatment, 30 mg of each active. The procedure: as §1
The test system of series [9] is subjects with Psychotic disorder. The experiment in a line: 48-day daily oral treatment, subjects diagnosed with psychotic disorder. The format is in vivo. As to conditions: 3 subjects with psychotic disorder; 48-day treatment, daily oral dose 30 mg; increase. The procedure: as §1
The conditions of series [10]: general statement in description; cited from earlier work.

For `C=C(C)[C@@H]1CCC(C)=C[C@H]1c1c(O)cc(CCCCC)cc1O` [cannabidiol], in series [1], the “increased occurrence of anxiety attacks during period of treatment, on average” value was “on average, 40%”. The “progression of disease symptoms during treatment” value in series [2] and in series [7] was “normal progression” throughout. The “Increased occurrence of panic attacks during period of treatment, on average” value in [3] is “on average, 40%”. For the same compound, the “decreased occurrence of schizophrenic episodes during period of treatment, on average” value in series [4] was “on average, 50%”. In addition, in series [5], the “subjects report improved mood after period of treatment” value is recorded as 5 subjects report. For the same compound, the “progression of movement, cognitive, and psychiatric disorders during treatment” value in series [6] is on record as “normal progression”. For the same compound, the “progression of movement disorders during treatment” value in [8] was “normal progression”. Besides, the “increased occurrence of psychotic episodes during period of treatment, on average” value in series [9] is listed as “on average, 10%”.
For the compound `CN(C)CCc1c[nH]c2cccc(OP(=O)(O)O)c12` [psilocybin, [3-(2-dimethylaminoethyl)-1H-indol-4-yl] dihydrogen phosphate], the “increased occurrence of anxiety attacks during period of treatment, on average” value in series [1] is recorded as “on average, 50%”. The “Increased occurrence of panic attacks during period of treatment, on average” value in [3] is listed as “on average, 50%”. In addition, the “decreased occurrence of schizophrenic episodes during period of treatment, on average” value in series [4] was “on average, 0%”. In series [5], the “subjects report improved mood after period of treatment” value was determined as 6 subjects report. Further, the “increased occurrence of psychotic episodes during period of treatment, on average” value in series [9] is “on average, 20%”. In addition, the toxicity entry in [10] is “low toxicity”.

The values are drawn from patent US10729706B2, “Psilocybin and/or psilocin in combination with cannabinoids and/or terpenes” (Procare Beheer B.V., priority 2017, dated 2020).
